In patent publication EP4567031A1, “HPK1 INHIBITOR, PREPARATION METHOD THEREFOR, AND USE THEREOF” (Beijing Earthwise Technology Co., Ltd., priority 2022, dated 2024):
Where two headings read alike, the source gives them in different places.

Tests used:
[1] = target: HPK1 (Homo sapiens, UniProt Q92918); experiment: HPK1 HTRF kinase assay; format: biochemical; details: 1000 µM ATP, 50 nM HPK1, STK1 substrate
Method: The reaction was initiated by adding 50 nM HPK1. After 120 minutes of reaction, the assay was terminated by adding 10 µL of Detection Mix.
The ratio of the signal at 665 nm to the signal at 615 nm was converted to the percentage of inhibition. Inhibition % = (maximum value - sample value) / (maximum value - minimum value)×100. The minimum value refers to the value measured in a well without enzyme but with DMSO and substrate, and the maximum value refers to the value measured in a well with DMSO, enzyme and substrate. IC50 values were calculated by XLFit (version 5.3.1.3) in Excel. Equation: Y = Bottom + (Top - Bottom) / (1 + (IC50/X) ^ HillSlope).

[2] = tested on: human Pan T cells; experiment: Human Pan T cell IL-2 ELISA; format: cell-based; details: read-out: IL-2 release, EC50
In short: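 Human Pan T cells (1×10^6 cells/ml) stimulated with plate-bound anti-CD3 plus anti-CD28 and treated 48 h with compound at 9 final concentrations, 39.063–10000 nM. Supernatant IL-2 by ELISA, expressed as fold over DMSO wells; EC50 from four-parameter logistic fit.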

[3] = Homo sapiens, T-cell, 48 h, Anti-CD3 and Anti-CD28, supernatant IL-2 ELISA

HPK1, sequence (Q92918 whole entry, species assumed): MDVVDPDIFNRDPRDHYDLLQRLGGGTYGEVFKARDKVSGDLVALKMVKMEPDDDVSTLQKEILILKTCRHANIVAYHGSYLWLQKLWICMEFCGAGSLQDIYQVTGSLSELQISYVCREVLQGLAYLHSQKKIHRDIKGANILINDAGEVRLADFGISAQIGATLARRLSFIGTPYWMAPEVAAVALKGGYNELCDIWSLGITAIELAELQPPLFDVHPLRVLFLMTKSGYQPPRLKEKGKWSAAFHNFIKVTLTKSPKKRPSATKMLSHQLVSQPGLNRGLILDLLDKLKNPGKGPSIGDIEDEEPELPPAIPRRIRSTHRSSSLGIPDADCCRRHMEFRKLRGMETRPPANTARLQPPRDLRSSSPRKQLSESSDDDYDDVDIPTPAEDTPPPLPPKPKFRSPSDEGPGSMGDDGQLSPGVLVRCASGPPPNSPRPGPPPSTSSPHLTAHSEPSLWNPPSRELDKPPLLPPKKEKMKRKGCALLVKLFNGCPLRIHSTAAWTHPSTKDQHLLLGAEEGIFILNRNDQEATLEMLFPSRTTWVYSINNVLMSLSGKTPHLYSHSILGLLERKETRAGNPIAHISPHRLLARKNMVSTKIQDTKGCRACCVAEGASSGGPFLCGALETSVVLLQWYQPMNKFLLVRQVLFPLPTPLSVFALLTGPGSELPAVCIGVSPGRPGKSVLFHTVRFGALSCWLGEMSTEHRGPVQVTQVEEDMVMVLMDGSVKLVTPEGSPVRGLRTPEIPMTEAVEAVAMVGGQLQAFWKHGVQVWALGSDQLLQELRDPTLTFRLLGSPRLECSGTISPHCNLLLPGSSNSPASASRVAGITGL

CC1(C)c2cc(N3CCOCC3)c(C(F)F)cc2Nc2c1cc(-c1cnn3cccnc13)c1c2C(=O)NC1 [Example 73]
IC50 ([1]; read-out: HPK1, IC50): 7.87 nM | EC50 [2, 3]: 28.9 nM

CC1(C)c2cc(-c3cnn4cccnc34)c3c(c2Nc2ccc(N4CCOCC4)nc21)C(=O)NC3 [Example 29]
IC50 ([1]; read-out: HPK1, IC50): 10.1 nM | EC50 [2, 3]: 27.9 nM

CC1(C)c2cc(N3CCOCC3)ccc2Nc2c1cc(-c1cnn3c1OCCC3)c1c2C(=O)NC1 [Example 77]
IC50 ([1]; read-out: HPK1, IC50): 4.56 nM | EC50 [2, 3]: 13.6 nM

CC1(C)c2cc(N3CCOCC3)ccc2Nc2c1cc(-c1cnn3cnccc13)c1c2C(=O)NC1 [Example 53]
IC50 ([1]; read-out: HPK1, IC50): 7.97 nM | EC50 [2, 3]: 5.54 nM

CC1(C)c2cc(CN3CCOCC3)ccc2Nc2c1cc(-c1cnn3cccnc13)c1c2C(=O)NC1 [Example 51]
IC50 ([1]; read-out: HPK1, IC50): 11.4 nM | EC50 [2, 3]: 58.8 nM

CN1CCn2c(-c3cc4c(c5c3CNC5=O)Nc3ccc(N5CCOCC5)cc3C4(C)C)cnc2C1=O [Example 84]
IC50 ([1]; read-out: HPK1, IC50): 8.63 nM | EC50 [2, 3]: 65.9 nM

CC1(C)c2cc(N3CCOCC3)cnc2Nc2c1cc(-c1cnn3cccnc13)c1c2C(=O)NC1 [Example 28]
IC50 ([1]; read-out: HPK1, IC50): 21.5 nM | EC50 [2, 3]: 95.9 nM

CC1(C)c2cc(N3CCOCC3)c(F)cc2Nc2c1cc(-c1cnn3cccnc13)c1c2C(=O)NC1 [Example 59]
IC50 ([1]; read-out: HPK1, IC50): 7.78 nM | EC50 [2, 3]: 6.97 nM

COc1cncc2c(-c3cc4c(c5c3CNC5=O)Nc3ccc(N5CCOCC5)cc3C4(C)C)cnn12 [Example 76]
IC50 ([1]; read-out: HPK1, IC50): 8.73 nM | EC50 [2, 3]: 50.4 nM

CC1CCn2c(-c3cc4c(c5c3CNC5=O)Nc3ccc(N5CCOCC5)cc3C4(C)C)cnc2C1 (stereo not shown) [Example 65]
IC50 ([1]; read-out: HPK1, IC50): 8.59 nM | EC50 [2, 3]: 28 nM

CC1(C)c2cc(N3CCOC(C(C)(C)O)C3)ccc2Nc2c1cc(-c1cnc3cccnn13)c1c2C(=O)NC1 (stereo not shown) [Example 19]
IC50 ([1]; read-out: HPK1, IC50): 6.31 nM | EC50 [2, 3]: 2.11 nM

Cn1c(-c2cc3c(c4c2CNC4=O)Nc2ccc(N4CCOCC4)cc2C3(C)C)cnc1C1CC1 [Example 68]
IC50 ([1]; read-out: HPK1, IC50): 12 nM | EC50 [2, 3]: 21.1 nM

CC1(C)c2cc(N3CCOCC3)ccc2Nc2c1cc(-c1cnc3n1CCC3)c1c2C(=O)NC1 [Example 86]
IC50 ([1]; read-out: HPK1, IC50): 7.95 nM | EC50 [2, 3]: 11.5 nM

COC1CCCn2c(-c3cc4c(c5c3CNC5=O)Nc3ccc(N5CCOCC5)cc3C4(C)C)cnc21 (stereo not shown) [Example 69]
IC50 ([1]; read-out: HPK1, IC50): 6.86 nM | EC50 [2, 3]: 11.4 nM

CC1(C)c2cc(N3CCOCC3)ccc2Nc2c1cc(-n1cnc3c1CCCC3)c1c2C(=O)NC1 [Example 80]
IC50 ([1]; read-out: HPK1, IC50): 9.18 nM | EC50 [2, 3]: 86.6 nM

COC1CCCn2c(-c3cc4c(c5c3CNC5=O)Nc3ccc(N5CCOCC5)cc3C4(C)C)cnc21 (single isomer, unassigned) [Example 90]
IC50 ([1]; read-out: HPK1, IC50): 6.72 nM | EC50 [2, 3]: 6.3 nM

COC1CCCn2c(-c3cc4c(c5c3CNC5=O)Nc3ccc(N5CCOCC5)cc3C4(C)C)cnc21 (single isomer, unassigned) [Example 91]
IC50 ([1]; HPK1, IC50 (nM)): 4.24 nM

CC1(C)c2cc(-c3cnn4cccnc34)c3c(c2Nc2cccc(OC4CCNC4)c21)C(=O)NC3 (stereo not shown) [Example 58]
IC50 ([1]; read-out: HPK1, IC50): 4150 nM

COc1ccnc2c(-c3cc4c(c5c3CNC5=O)Nc3ccc(N5CCOCC5)cc3C4(C)C)cnn12 [Example 66]
IC50 ([1]; read-out: HPK1, IC50): 11.1 nM

Cc1ccn2c(-c3cc4c(c5c3CNC5=O)Nc3ccc(N5CCOC(C(C)(C)O)C5)cc3C4(C)C)cnc2c1F (single isomer, unassigned) [Example 89]
IC50 ([1]; HPK1, IC50 (nM)): 8.13 nM

COC1CCCn2c(-c3cc4c(c5c3CNC5=O)Nc3ccc(N5CCOC(C(C)(C)O)C5)cc3C4(C)C)cnc21 (single isomer, unassigned) [Example 132]
EC50 [2, 3]: 10.1 nM

C#Cc1ccn2c(-c3cc4c(c5c3CNC5=O)Nc3ccc(N5CCOCC5)cc3C4(C)C)cnc2c1 [Example 216]
EC50 [2, 3]: 5.4 nM

COC1CCCn2c(-c3cc4c(c5c3CNC5=O)Nc3ccc(N5CCOCC5)nc3C4(C)C)cnc21 (single isomer, unassigned) [Example 25]
EC50 [2, 3]: 33.4 nM

CCOC1CCCn2c(-c3cc4c(c5c3CCNC5=O)Nc3ccc(N5CCOCC5)cc3C4(C)C)cnc21 (single isomer, unassigned) [Example 281]
EC50 [2, 3]: 18 nM

CC1(C)c2cc(N3CCOC(CO)C3)ccc2Nc2c1cc(-c1cnc3cc(F)ccn13)c1c2C(=O)NC1 (stereo not shown) [Example 108]
EC50 [2, 3]: 5.58 nM

CCc1nccn2c(-c3cc4c(c5c3CNC5=O)Nc3ccc(N5CCOCC5)cc3C4(C)C)cnc12 [Example 164]
EC50 [2, 3]: 17 nM

COc1ccnc2c(-c3cc4c(c5c3CNC5=O)Nc3ccc(N5CCO[C@@H](C(C)(C)O)C5)cc3C4(C)C)cnn12 [Example 171]
EC50 [2, 3]: 6.3 nM

CC1(C)c2cc(N3CCOCC3)ccc2Nc2c1cc(-c1cnc3n1CCCC3OC1CC1)c1c2C(=O)NC1 (single isomer, unassigned) [Example 187]
EC50 [2, 3]: 15 nM

COc1nccn2c(-c3cc4c(c5c3CNC5=O)Nc3ccc(N5CCOC6(CC6)C5)cc3C4(C)C)cnc12 [Example 201]
EC50 [2, 3]: 2.7 nM

CC1(C)c2cc(N3CCOCC3)ccc2Nc2c1cc(-c1cnc3n1CCC(C(F)F)C3)c1c2C(=O)NC1 (single isomer, unassigned) [Example 240]
EC50 ([2]; Anti-CD3 and Anti-CD28, 48 hours, supernatant IL-2 ELISA): 26 nM

CC1(C)c2cc(N3CCOCC3)ccc2Nc2c1cc(-c1cnc3cnccn13)c1c2C(=O)NC1 [Example 156]
EC50 [2, 3]: 2.76 nM

COc1nccn2c(-c3cc4c(c5c3CNC5=O)Nc3ccc(N5CCOC(C(C)(C)O)C5)cc3C4(C)C)cnc12 (stereo not shown) [Example 114]
EC50 [2, 3]: 10.9 nM

COc1ccc2c(-c3cc4c(c5c3CNC5=O)Nc3ccc(N5CCOC(C(C)(C)O)C5)cc3C4(C)C)cnn2c1 (single isomer, unassigned) [Example 157]
EC50 [2, 3]: 6.47 nM

Cc1ccc2c(-c3cc4c(c5c3CNC5=O)Nc3ccc(N5CCOC(C(C)(C)O)C5)cc3C4(C)C)cnn2c1 (single isomer, unassigned) [Example 95]
EC50 [2, 3]: 7.82 nM

CC1(C)c2cc(-c3cnc4cc(F)ccn34)c3c(c2Nc2ccc(N4CCOC(C(C)(C)O)C4)c(F)c21)C(=O)NC3 (stereo not shown) [Example 124]
EC50 [2, 3]: 15.7 nM

COc1nccn2c(-c3cc4c(c5c3CCNC5=O)Nc3ccc(N5CCOCC5)cc3C4(C)C)cnc12 [Example 280]
EC50 [2, 3]: 13 nM

CC1(C)c2cc(N3CCOC(C(C)(C)O)C3)ccc2Nc2c1cc(-c1cnc3cc(C(F)F)ccn13)c1c2C(=O)NC1 (single isomer, unassigned) [Example 129]
EC50 [2, 3]: 18.2 nM

CC1(C)c2cc(N3CCOCC3)ccc2Nc2c1cc(-c1cnc3cc(C(F)F)ccn13)c1c2C(=O)NC1 [Example 161]
EC50 [2, 3]: 6.36 nM

COC1CCCn2c(-c3cc4c(c5c3CNC5=O)Nc3ccc(N5CCOCC5)cc3C4(C)C)nnc21 (racemic) [Example 120]
EC50 [2, 3]: 66.7 nM

Cc1c(-c2cc3c(c4c2CNC4=O)Nc2ccc(N4CCOC(C(C)(C)O)C4)cc2C3(C)C)cnc2c1NCCO2 (stereo not shown) [Example 104]
EC50 [2, 3]: 6.44 nM

CC1(C)c2cc(N3CCOCC3)ccc2Nc2c1cc(-c1cnc3c(OC4CNC4)nccn13)c1c2C(=O)NC1 [Example 224]
EC50 [2, 3]: 33 nM

Cc1ccnn2c(-c3cc4c(c5c3CNC5=O)Nc3ccc(N5CCOC(C(C)(C)O)C5)cc3C4(C)C)cnc12 (stereo not shown) [Example 33]
IC50 ([1]; read-out: HPK1, IC50): 11.4 nM

CC1(C)c2cc(N3CCOCC3)ccc2Nc2c1cc(-c1cnc3c(OC4COC4)nccn13)c1c2C(=O)NC1 [Example 184]
EC50 [2, 3]: 14 nM

COCC1CN(c2ccc3c(c2)C(C)(C)c2cc(-c4cnc5c(OC)nccn45)c4c(c2N3)C(=O)NC4)CCO1 (stereo not shown) [Example 195]
EC50 [2, 3]: 3.7 nM

CC1(C)c2cc(N3CCOC(C(C)(C)O)C3)ccc2Nc2c1cc(-c1cnn3cc(Cl)ccc13)c1c2C(=O)NC1 (single isomer, unassigned) [Example 154]
EC50 [2, 3]: 7.35 nM

CC1(C)c2cc(N3CCOCC3)ccc2Nc2c1cc(-c1cnc3n1CCC(C#N)C3)c1c2C(=O)NC1 (single isomer, unassigned) [Example 242]
EC50 [2, 3]: 8.5 nM

Cn1ccc2c(-c3cc4c(c5c3CNC5=O)Nc3ccc(N5CCOCC5)cc3C4(C)C)ccnc21 [Example 42]
EC50 [2, 3]: 14.2 nM

CC1(C)c2cc(N3CCOC(C(C)(C)O)C3)ccc2Nc2c1cc(-c1cnc3cc(C#N)ccn13)c1c2C(=O)NC1 (stereo not shown) [Example 101]
EC50 [2, 3]: 5.58 nM

Cc1ccn2c(-c3cc4c(c5c3CNC5=O)Nc3ccc(N5CCOCC5)cc3C4(C)C)cnc2n1 [Example 185]
EC50 [2, 3]: 2.2 nM

COCC1CN(c2ccc3c(c2)C(C)(C)c2cc(-c4cnc5c(F)c(C)ccn45)c4c(c2N3)C(=O)NC4)CCO1 (stereo not shown) [Example 131]
EC50 [2, 3]: 8.27 nM

CC1(C)c2cc(N3CC(CO)OCC3=O)ccc2Nc2c1cc(-c1cnn3cccnc13)c1c2C(=O)NC1 (stereo not shown) [Example 115]
EC50 [2, 3]: 91.5 nM
